Source: patent publication US20240335427A1, “SMALL MOLECULE INHIBITION OF DEUBIQUITINATING ENZYME JOSEPHIN DOMAIN CONTAINING 1 (JOSD1) AS A TARGETED THERAPY FOR LEUKEMIAS WITH MUTANT JANUS KINASE 2 (JAK2)” (DANA-FARBER CANCER INSTITUTE, INC., priority 2021, published 2024)

Columns and labels:
[1] = biological target: JOSD1 (Homo sapiens (Human), UniProt Q15040); experiment: In vitro JOSD1 activity assay (biochemical IC50, purified enzyme); details: read-out: JOSD1 IC50
Description: In vitro JOSD1 activity assay & Ubiquitin-7-amido-4-methylcoumarin (AMC) assay. In vitro JOSD1 activity assay was carried out with Ubiquitin-AMC assay. […] Recombinant JOSD1 was tested for activity in a Ubiquitin-AMC assay in the presence or absence of inhibitors. […] The reaction was incubated for 6 hours at room temperature prior to the addition of 2 μM Ubiquitin-AMC (Boston Biochem) substrate. The initial rate of the reaction was measured by collecting fluorescence data at one-minute intervals over a 30-minute period using a Clariostar® fluorescence plate reader at excitation and emission wavelengths of 345 and 445 nm, respectively. The calculated initial rate values were plotted against inhibitor concentrations to determine IC50 values.
In vitro JOSD1 activity assay. Recombinant full-length JOSD1 was tested for activity in a Ubiquitin-AMC assay in the presence or absence or inhibitors. For this assay, 10 nM JOSD1 was pre-incubated with different concentrations of inhibitors or DMSO as a control in 50 mM Tris 8.0, 0.5 mM EDTA, 10 mM ovalbumin, 5 mM DTT. The reaction was incubated for 6 h at room temperature prior to the addition of 2 mM Ubiquitin-AMC (Boston Biochem) substrate. The initial rate of the reaction was measured by collecting fluorescence data at one-minute intervals over a 30-minute period using a CLARIOstar® fluorescence plate reader at excitation and emission wavelengths of 345 and 445 nm, respectively. The calculated initial rate values were plotted against inhibitor concentrations to determine IC50 values.
JOSD1 biochemical inhibition was investigated for the analogs shown using the fluorescent substrate ubiquitin-rhodamine against purified enzyme in a continuous kinetic assay.

[2] = biological target: UCHL1 (Homo sapiens (Human), UniProt P09936); experiment: UCHL1 biochemical inhibition (ubiquitin hydrolase activity, purified enzyme)
[3] = test system: JAK2-V617F-positive primary AML patient samples; experiment: AML liquid culture proliferation, primary patient samples; type: cell-based, human; details: 1 μM
Description: AML liquid culture proliferation and colony assay studies. Frozen vials of bone marrow from AML patients identified as harboring JAK2-V617F were previously Ficoll®-purified to obtain mononuclear cells and thawed prior to use in studies.

Chain of UCHL1 (P09936 whole entry, species assumed): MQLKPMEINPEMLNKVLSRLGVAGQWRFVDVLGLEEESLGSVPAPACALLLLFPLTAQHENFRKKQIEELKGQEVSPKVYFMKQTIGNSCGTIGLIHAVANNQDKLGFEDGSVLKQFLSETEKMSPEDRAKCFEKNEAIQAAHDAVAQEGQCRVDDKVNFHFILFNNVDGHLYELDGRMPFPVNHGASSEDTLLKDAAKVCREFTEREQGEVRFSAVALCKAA

| IC50 [1] [µM] | IC50 [2] [µM] | Compound | efficacy against primary AML cells [3] |
| --- | --- | --- | --- |
| 0.099 | 0.012 | N#CN1CCC(C(=O)Nc2nc3ccc(C4CC4)cc3s2)C1 (stereo in doubt) [Compound 8, (R)-1-cyano-N-(6-cyclopropylbenzo[d]thiazol-2-yl)pyrrolidine-3-carboxamide] |  |
| 0.045 |  | Cc1noc(C)c1-c1ccc2sc(NC(=O)[C@H]3CCN(C#N)C3)nc2c1 [Compound 4, (S)-1-cyano-N-(5-(3,5-dimethylisoxazol-4-yl)benzo[d]thiazol-2-yl)pyrrolidine-3-carboxamide] |  |
| 0.074 |  | Cc1noc(C)c1-c1cccc2sc(NC(=O)[C@H]3CCN(C#N)C3)nc12 [Compound 5, (S)-1-cyano-N-(4-(3,5-dimethylisoxazol-4-yl)benzo[d]thiazol-2-yl)pyrrolidine-3-carboxamide] |  |
| 0.082 |  | CCn1cc(-c2ccc3nc(NC(=O)[C@@H]4CCN(C#N)C4)sc3c2)cn1 [Compound 6, (R)-1-cyano-N-(6-(1-ethyl-1H-pyrazol-4-yl)benzo[d]thiazol-2-yl)pyrrolidine-3-carboxamide] |  |
| 0.16 |  | N#CN1CC[C@H](C(=O)Nc2ccc3c(cnn3Cc3ccccc3)c2)C1 [Compound 10, (S)—N-(1-benzyl-1H-indazol-5-yl)-1-cyanopyrrolidine-3-carboxamide] |  |
| 0.16 |  | N#CN1CC[C@H](C(=O)Nc2nc(-c3ccccc3)cs2)C1 [Compound 11, (S)-1-cyano-N-(4-phenylthiazol-2-yl)pyrrolidine-3-carboxamide] |  |
| 0.244 | 0.1 | Cc1noc(C)c1-c1ccc2nc(NC(=O)[C@H]3CCN(C#N)C3)sc2c1 [Compound 12] |  |
| 0.27 |  | N#CN1CC[C@@H](C(=O)Nc2nc3ccc(-c4ccc(-c5ccccc5)cc4)cc3s2)C1 [Compound 14, (R)—N-(6-([1,1′-biphenyl]-4-yl)benzo[d]thiazol-2-yl)-1-cyanopyrrolidine-3-carboxamide] |  |
| 0.288 | 2 | N#CN1CC[C@H](C(=O)Nc2nc3ccc(Br)nc3s2)C1 [Compound 15, (S)—N-(5-bromothiazolo[5,4-b]pyridin-2-yl)-1-cyanopyrrolidine-3-carboxamide] |  |
| 0.38 |  | Cc1cccc2sc(NC(=O)[C@H]3CCN(C#N)C3)nc12 [Compound 18, (S)-1-cyano-N-(4-methylbenzo[d]thiazol-2-yl)pyrrolidine-3-carboxamide] |  |
| 0.42 | 0.09 | Cc1noc(C)c1-c1ccc2nc(NC(=O)[C@H]3CCN(C#N)C3)sc2n1 [Compound 19] |  |
| 0.43 | 2.06 | N#CN1CC[C@H](NC(=O)c2nc3ccccc3s2)C1 [Compound 20] |  |
| 0.46 |  | Cc1noc(C)c1-c1ccc2cnc(NC(=O)[C@H]3CCN(C#N)C3)cc2c1 [Compound 21] |  |
| 0.52 |  | N#CN1CC[C@H](C(=O)Nc2nc3ccc(-c4c[nH]nc4C(F)(F)F)cc3s2)C1 [Compound 22, (S)-1-cyano-N-(6-(3-(trifluoromethyl)-1H-pyrazol-4-yl)benzo[d]thiazol-2-yl)pyrrolidine-3-carboxamide] |  |
| 0.69 | 1.85 | Cc1noc(C)c1-c1ccc2nc(NC(=O)[C@@H]3CCN(C#N)C3)sc2c1 [Compound 24] |  |
| 0.931 | 8.9 | N#CN1CC[C@H](C(=O)Nc2ccn(Cc3ccccc3)c2)C1 [Compound 25] |  |
| 1.1 | 0.1 | N#CN1CCC(C(=O)Nc2nc3c(s2)CN(C(=O)c2ccccc2)CC3)C1 (centres unmarked) [Compound 26] |  |
| 1.1 |  | N#CN1CC[C@H](C(=O)Nc2cnn(Cc3ccccc3)c2)C1 [Compound 27, (S)—N-(1-benzyl-1H-pyrazol-4-yl)-1-cyanopyrrolidine-3-carboxamide] |  |
| 1.22 | 0.155 | N#CN1CC[C@H](C(=O)Nc2cn(-c3ccccc3)cn2)C1 [Compound 28] |  |

| IC50 [1] [µM] | IC50 [2] [µM] | Compound | efficacy against primary AML cells [3] |
| --- | --- | --- | --- |
|  | 2 | N#CN1CC[C@@H](C(=O)Nc2cn(Cc3ccccc3)cn2)C1 [Compound 29] |  |
| 1.37 | 3.67 | N#CN1CC[C@H](C(=O)Nc2nc3ccccc3[nH]2)C1 [Compound 30, (S)—N-(1H-benzo[d]imidazol-2-yl)-1-cyanopyrrolidine-3-carboxamide] |  |
| 1.4 | 2.69 | N#CN1CC[C@H](C(=O)Nc2nc3n(n2)CCN(Cc2ccccc2)C3)C1 [Compound 31] |  |
|  | 0.104 | N#CN1CC[C@H](C(=O)Nc2cn(Cc3ccccc3)cn2)C1 [Compound 32] |  |
| 1.95 | 1.83 | N#CN1CC(C(=O)Nc2nc3ccc(Br)cc3s2)C1 [Compound 33, N-(6-bromobenzo[d]thiazol-2-yl)-1-cyanoazetidine-3-carboxamide] |  |
| 2.13 |  | Cc1sc(N(C)C(=O)[C@@H]2CCCN2C#N)nc1-c1cccc(C#N)n1 [Compound 34] |  |
| 2.77 | 0.42 | Cc1noc(C)c1-c1ccc2nc(NC(=O)C3CCN(C#N)CC3)sc2c1 [Compound 35, 1-Cyano-N-(6-(3,5-dimethylisoxazol-4-yl)benzo[d]thiazol-2-yl)piperidine-4-carboxamide] |  |
| 3.37 | 1.33 | N#CN1CC[C@H](C(=O)Nc2nc3n(n2)CCN(C(=O)c2ccccc2)C3)C1 [Compound 36] |  |
| 4.15 | 0.089 | N#CN1CC[C@H](C(=O)Nc2cn(C3CCCN(C(=O)c4ccccc4)C3)cn2)C1 (some centres unmarked) [Compound 38] |  |
| 4.85 |  | N#CN1CC[C@H](C(=O)Nc2nc3ccccc3o2)C1 [Compound 39, (S)—N-(benzo[d]oxazol-2-yl)-1-cyanopyrrolidine-3-carboxamide] |  |
| 5.68 | 100 | Cc1noc(C)c1-c1ccc2nc(NC(=O)[C@H]3CCN(CC#N)C3)sc2c1 [Compound 40, (S)-1-(cyanomethyl)-N-(6-(3,5-dimethylisoxazol-4-yl)benzo[d]thiazol-2-yl)pyrrolidine-3-carboxamide] |  |
| 6.07 | 100 | N#CN1CCc2cc(NC(=O)c3nc4ccccc4s3)ccc21 [Compound 41] |  |
| 6.23 | 1.08 | N#CN1CCC[C@H](C(=O)Nc2cn(Cc3ccccc3)cn2)C1 [Compound 42] |  |
| 6.42 |  | Cc1noc(C)c1-c1ccc2nc(NC(=O)c3ccnc(C#N)n3)sc2c1 [Compound 43, 2-Cyano-N-(6-(3,5-dimethyl-1λ^3,2λ^2-isoxazol-4-yl)benzo[d]thiazol-2-yl)pyrimidine-4-carboxamide] |  |
| 8.25 |  | C#CCNC(=O)c1ccc(-c2cnc(NC(=O)[C@H]3CCN(C#N)C3)s2)cc1 [Compound 44, (S)-1-cyano-N-(5-(4-(prop-2-yn-1-ylcarbamoyl)phenyl)thiazol-2-yl)pyrrolidine-3-carboxamide] |  |
| 11.3 | 100 | N#CN1CC(CNC(=O)c2nc3ccccc3s2)C1 [Compound 46, N-((1-cyanoazetidin-3-yl)methyl)benzo[d]thiazole-2-carboxamide] |  |
|  | 1.29 | Cc1noc(C)c1-c1ccc2nc(NC(=O)C3CN(C#N)C3)sc2c1 [Compound 47, 1-Cyano-N-(6-(3,5-dimethylisoxazol-4-yl)benzo[d]thiazol-2-yl)azetidine-3-carboxamide] |  |
|  |  | N#CC[C@H](C1CCCC1)n1cc(-c2ncnc3[nH]ccc23)cn1 [ruxolitinib, reference compound] | at best modest efficacy |
